Results published in patent publication US11466019B2, “Triazolo[4,5-d] pyramidine derivatives and their use as purine receptor antagonists” (Vernalis (R&D) Limited, priority 2008, dated 2022).
Read-outs that look alike come from different tables or passages of the source.

How the values were obtained:
[1] = molecular target: T1, human adenosine A1 receptors (Homo sapiens, UniProt P30542); test: Adenosine receptor binding: binding affinities at hA1 receptors ([3H]DPCPX displacement); settings: for Ki: read-out: Binding Affinity hA1-Ki; for Binding Selectivity A1/A2a: ratio of Ki values
T1 construct: expressed in transfected cells; host or cells: CHO-K1
T1 sequence (P30542 1-326): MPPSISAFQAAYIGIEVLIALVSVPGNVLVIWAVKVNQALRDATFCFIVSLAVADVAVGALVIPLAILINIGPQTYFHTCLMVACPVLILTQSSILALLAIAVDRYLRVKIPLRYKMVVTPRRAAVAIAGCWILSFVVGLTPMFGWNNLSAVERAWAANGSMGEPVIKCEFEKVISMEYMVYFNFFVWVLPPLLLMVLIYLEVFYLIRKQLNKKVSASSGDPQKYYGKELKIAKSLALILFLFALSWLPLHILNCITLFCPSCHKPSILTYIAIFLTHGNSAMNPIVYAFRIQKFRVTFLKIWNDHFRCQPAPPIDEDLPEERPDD
Method: Adenosine Receptor Binding: Binding Affinities at hA1 Receptors
The resultant homogenate was kept for immediate use in the binding.
(§1) Binding assays were performed in a total volume of 250 μL, containing [^3H]-DPCPX (3.0 nM), membranes and additional drugs. Total binding was determined using drug dilution buffer (50 mM Tris-HCl pH:7.5, 10 mM MgCl2, 5% DMSO). Non-specific binding was determined using 300 μM N6-cyclohexyladenosine (CHA). […] Filters were left to dry overnight, and Microscint-0 scintillation fluid was then added to the filters. The filters were then left for at least 2 hours before the radioactivity was assessed using a Canberra Packard TopCount microplate scintillation counter.
To determine the free ligand concentration, three vials were counted with 25 μL of [^3H]DPCPX containing 4 mL of Ultima-Gold MV scintillant on a Beckman LS6500 multi-purpose scintillation counter.
(§2) Data was analysed using a 4 parameter logistical equation and non-linear regression which yields affinity constants (pIC50), and slope parameters:
(§3) [formula] where E is the quantity of binding and [A] is the competitor concentration. The Ki is then determined using the Cheng-Prusoff equation: […]

[2] = molecular target: T2, human adenosine A2A receptors (Homo sapiens, UniProt P29274); test: Adenosine receptor binding: binding affinities at hA2A receptors ([3H]CGS-21680 displacement); settings: read-out: Binding Affinity hA2A-Ki
T2 construct: host or cells: HEK-293
Method: Adenosine Receptor Binding: Binding Affinities at hA2A Receptors
as §1, with “The resultant homogenate was kept for immediate use in the binding assay. Binding” for “Binding”, “[^3H]-CGS21680 (20.0” for “[^3H]-DPCPX (3.0”, “pH 7.5,” for “pH:7.5,”, “CHA.” for “N6-cyclohexyladenosine (CHA).”
To determine the free ligand concentration, three vials were counted with 25 μL of [^3H]CGS21680 containing 4 mL of Ultima-Gold MV scintillant on a Beckman LS6500 multi-purpose scintillation counter.
as §2, §3

hA2B receptors = molecular target: T3, hA2B receptors (Homo sapiens, UniProt P29275); test: Adenosine receptor binding: binding affinities at hA2B receptors ([3H]-ZM241385 displacement); settings: for Ki: read-out: Binding Affinity hA2B-Ki; for Binding Selectivity A2b/A2a: ratio of Ki values
T3 construct: host or cells: HEK-293
T3 sequence (P29275 1-332): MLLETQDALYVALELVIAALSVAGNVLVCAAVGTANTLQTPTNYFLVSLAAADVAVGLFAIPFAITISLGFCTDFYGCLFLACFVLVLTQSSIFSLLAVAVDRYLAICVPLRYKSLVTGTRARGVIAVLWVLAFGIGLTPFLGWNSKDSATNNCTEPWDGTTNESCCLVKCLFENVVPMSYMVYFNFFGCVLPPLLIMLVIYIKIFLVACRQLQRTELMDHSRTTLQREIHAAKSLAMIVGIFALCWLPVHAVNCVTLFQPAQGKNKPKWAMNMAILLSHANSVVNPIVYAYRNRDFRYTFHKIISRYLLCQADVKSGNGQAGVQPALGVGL

[3] = molecular target: T4, human adenosine A3 receptors (Homo sapiens, UniProt P0DMS8); test: Adenosine receptor binding: binding affinities at hA3 receptors ([125I]-AB MECA displacement); settings: for Ki: read-out: Binding Affinity hA3-Ki; for Binding Selectivity A3/A2a: ratio of Ki values
T4 construct: expressed in transfected cells; host or cells: CHO-K1
T4 sequence (P0DMS8 1-318): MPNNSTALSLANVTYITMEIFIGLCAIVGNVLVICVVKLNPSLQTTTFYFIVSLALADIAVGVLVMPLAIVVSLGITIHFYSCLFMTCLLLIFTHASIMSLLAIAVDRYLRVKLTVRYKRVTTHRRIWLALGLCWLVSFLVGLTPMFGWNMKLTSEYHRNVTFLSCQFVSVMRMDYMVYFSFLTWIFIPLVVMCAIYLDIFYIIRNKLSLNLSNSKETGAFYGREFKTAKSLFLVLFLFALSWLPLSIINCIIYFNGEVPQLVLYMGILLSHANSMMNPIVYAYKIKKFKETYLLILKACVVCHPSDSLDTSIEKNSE
Method: [formula] Adenosine Receptor Binding: Binding Affinities at hA3 Receptors
The resultant homogenate was kept for immediate use in the binding assay.
as §1, with “Total” for “Binding assays were performed in a total volume of 250 μL, containing [^3H]-DPCPX (3.0 nM), membranes and additional drugs. Total”, “pH 7.5,” for “pH:7.5,”, “10” for “300”, “IB-MECA.” for “N6-cyclohexyladenosine (CHA).”
as §2, §3

[4] = tested on: haloperidol-induced deficits in locomotor activity in mice; test: Haloperidol-induced hypolocomotion model (HaloLMA); format: in vivo; settings: female TO mice, intraperitoneal, haloperidol 0.2 mg/kg
Description: Evaluation of Potential Anti-Parkinsonian Activity In Vivo: Haloperidol-Induced Hypolocomotion Model
This approach is also considered a valid method for screening drugs with potential antiparkinsonian effects. Thus, the ability of novel adenosine antagonists to block haloperidol-induced deficits in locomotor activity in mice can be used to assess both in vivo and potential antiparkinsonian efficacy.
Female TO mice (25-30 g) are used for all experiments. Animals are housed in groups of 8 (cage size-40 cm (width) by 40 cm (length) by 20 cm (height)) under 12 hour light/dark cycle (lights on 08:00), in a temperature (20±2° C.) and humidity (55±15%) controlled environment. Animals have free access to food and water, and are allowed at least 7 days to acclimatize after delivery before experimental use.
Liquid injectable haloperidol (e.g., 1 mL Serenance ampoules from Baker Norton, Harlow, Essex, each containing haloperidol BP 5 mg) are diluted to a final concentration of 0.02 mg/mL using saline. Test compounds are typically prepared as aqueous suspensions in 8% Tween. All compounds are administered intraperitoneally in a volume of 10 mL/kg.
1.5 hours before testing, mice are administered 0.2 mg/kg haloperidol, a dose that reduces baseline locomotor activity by at least 50%. Test substances are typically administered 5-60 minutes prior to testing. The animals are then placed individually into clean, clear polycarbonate cages (20 cm (width) by 40 cm (length) by 20 cm (height), with a flat perforated, Perspex lid). Horizontal locomotor activity is determined by placing the cages within a frame containing a 3 by 6 array of photocells linked to a computer, which tabulates beam breaks. Mice are left undisturbed to explore for 1 hour, and the number of beams breaks made during this period serves as a record of locomotor activity which is compared with data for control animals for statistically significant differences.
A number of the exemplified compounds of the present invention were tested in this assay and the results obtained are shown in Table 3, below.

[5] = Table 2, comparative compounds of WO 02/055083
[6] = Table 1, [3H]DPCPX displacement, CHO-K1 membranes
[7] = Table 1, [3H]CGS-21680 displacement, HEK-293 membranes
[8] = Table 1, [3H]-ZM241385 displacement, HEK-293 membranes
[9] = Table 1, [125I]-AB MECA displacement, CHO-K1 membranes

T2 sequence (P29274 whole entry): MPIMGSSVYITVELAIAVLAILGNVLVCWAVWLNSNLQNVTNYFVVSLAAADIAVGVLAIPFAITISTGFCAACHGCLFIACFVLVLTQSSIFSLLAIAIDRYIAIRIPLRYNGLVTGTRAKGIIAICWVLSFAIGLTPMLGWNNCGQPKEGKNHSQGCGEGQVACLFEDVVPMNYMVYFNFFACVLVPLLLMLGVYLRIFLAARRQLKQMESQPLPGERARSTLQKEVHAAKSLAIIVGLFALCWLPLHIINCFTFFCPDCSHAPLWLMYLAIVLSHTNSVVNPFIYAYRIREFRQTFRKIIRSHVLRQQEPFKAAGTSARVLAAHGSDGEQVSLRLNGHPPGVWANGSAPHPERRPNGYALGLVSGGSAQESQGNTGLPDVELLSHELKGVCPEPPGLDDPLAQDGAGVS

| SMILES | Ki [1, 5] | Binding Selectivity A1/A2a ([1]; Table 2) | Ki [2, 5] | Ki (hA2B receptors; [5]) | Binding Selectivity A2b/A2a (hA2B receptors; Table 2) | Ki [3, 5] | Binding Selectivity A3/A2a ([3]; Table 2) | Ki [1, 6] | Binding Selectivity A1/A2a ([1]; Table 1) | Ki [2, 7] | Ki (hA2B receptors; [8]) | Binding Selectivity A2b/A2a (hA2B receptors; Table 1) | Ki [3, 9] | Binding Selectivity A3/A2a ([3]; Table 1) | In Vivo activity HaloLMA MED [4] |
| --- | --- | --- | --- | --- | --- | --- | --- | --- | --- | --- | --- | --- | --- | --- | --- |
| CC(C)OCc1cccc(Cn2nnc3c(-c4ccco4)nc(N)nc32)n1 [WO 02/055083 Example 247, 7-(2-furyl)-3-(6-isopropoxymethyl-2-pyridylmethyl)-3H-[1,2,3]triazolo[4,5-d]pyrimidine-5-amine, reference compound] | 276 nM | 92 | 3 nM | 454 nM | 151 | 1460 nM | 487 |  |  |  |  |  |  |  |  |
| COCc1cccc(Cn2nnc3c(-c4ccc(C)o4)nc(N)nc32)n1 [WO 02/055083 Example 183, 3-(6-methoxymethyl-2-pyridylmethyl)-7-(5-methyl-2-furyl)-3H-[1,2,3]triazolo[4,5-d]pyrimidine-5-amine, reference compound] | 84.1 nM | 67 | 1.3 nM | 231 nM | 183 | 656 nM | 519 |  |  |  |  |  |  |  |  |
| Cc1ccc(-c2nc(N)nc3c2nnn3Cc2cccc(CO[C@H]3CCOC3)n2)o1 [Example 1, S-7-(5-methylfuran-2-yl)-3-(6-[tetrahydrofuran-3-yl]oxymethylpyrid-2-ylmethyl)-3H-[1,2,3]triazolo[4,5-d]pyrimidin-5-amine] |  |  |  |  |  |  |  |  |  |  |  |  |  |  | 0.3 mg/kg |
| CC(C)COCc1cccc(Cn2nnc3c(-c4ccco4)nc(N)nc32)n1 [WO 02/055083 Example 217, 7-(2-furyl)-3-(6-isobutyloxymethyl-2-pyridylmethyl)-3H-[1,2,3]triazolo[4,5-d]pyrimidine-5-amine, reference compound] | 153 nM | 53 | 2.9 nM | 382 nM | 131 | 475 nM | 163 |  |  |  |  |  |  |  |  |
| Cl.Nc1nc(-c2ccco2)c2nnn(Cc3cccc(CO)n3)c2n1 [WO 02/055083 Example 213, 7-(2-furyl)-3-(6-hydroxymethyl-2-pyridylmethyl)-3H-[1,2,3]triazolo[4,5-d]pyrimidine-5-amine hydrochloride, reference compound] | 585 nM | 216 | 2.7 nM | 271 nM | 100 | 1700 nM | 625 |  |  |  |  |  |  |  |  |
| N#Cc1cccc(-c2nc(N)nc3c2nnn3Cc2cccc(C3(O)CCCC3)n2)c1 [Example 21, 7-(3-cyanophenyl)-3-(6-[1-hydroxy-1-cyclopentyl]pyrid-2-ylmethyl)-3H-[1,2,3]triazolo[4,5-d]pyrimidin-5-amine] |  |  |  |  |  |  |  | 2390 nM | 100 | 23.9 nM | 2050 nM | 86 |  |  |  |

More lines, main results first:

| Ki [1, 5] | Binding Selectivity A1/A2a ([1]; Table 2) | Ki [2, 5] | Ki (hA2B receptors; [5]) | Binding Selectivity A2b/A2a (hA2B receptors; Table 2) | Ki [3, 5] | Binding Selectivity A3/A2a ([3]; Table 2) | Ki [1, 6] | Binding Selectivity A1/A2a ([1]; Table 1) | Ki [2, 7] | Ki (hA2B receptors; [8]) | Binding Selectivity A2b/A2a (hA2B receptors; Table 1) | Ki [3, 9] | Binding Selectivity A3/A2a ([3]; Table 1) | SMILES | In Vivo activity HaloLMA MED [4] |
| --- | --- | --- | --- | --- | --- | --- | --- | --- | --- | --- | --- | --- | --- | --- | --- |
| 102 nM | 19 | 5.3 nM | 276 nM | 52 | 831 nM | 156 |  |  |  |  |  |  |  | Nc1cccc(Cn2nnc3c(-c4ccccc4)nc(N)nc32)c1 [WO 02/055083 Example 151, 3-(3-aminobenzyl)-7-phenyl-3H-[1,2,3]triazolo[4,5-d]pyrimidine-5-amine, reference compound] |  |
|  |  |  |  |  |  |  | 320 nM | 62 | 5.2 nM | 3270 nM | 634 | 4300 nM | 836 | Nc1nc(-c2ccccc2)c2nnn(Cc3cccc(C4(O)CCC4)n3)c2n1 [Example 11, 7-phenyl-3-(6-[1-hydroxycyclobutyl]pyrid-2-ylmethyl)-3H-[1,2,3]triazolo[4,5-d]pyrimidin-5-amine] |  |
|  |  |  |  |  |  |  | 731 nM | 54 | 13.4 nM | 1240 nM | 93 |  | 634 | Nc1nc(-c2ccccc2)c2nnn(Cc3cccc(CO[C@H]4CCOC4)n3)c2n1 [Example 7, S-7-phenyl-3-(6-[tetrahydrofuran-3-yl]oxymethylpyrid-2-ylmethyl)-3H-[1,2,3]triazolo[4,5-d]pyrimidin-5-amine] |  |
|  |  |  |  |  |  |  | 386 nM | 39 | 9.9 nM | 4690 nM | 472 | 1950 nM | 196 | COc1cccc(-c2nc(N)nc3c2nnn3Cc2cccc(C3(O)CCC3)n2)c1 [Example 17, 7-(3-methoxyphenyl)-3-(6-[1-hydroxycyclobutyl]pyrid-2-ylmethyl)-3H-[1,2,3]triazolo[4,5-d]pyrimidin-5-amine] |  |
|  |  |  |  |  |  |  | 1330 nM | 90 | 14.8 nM | 6820 nM | 462 |  |  | N#Cc1cccc(-c2nc(N)nc3c2nnn3Cc2cccc(C3(O)CCC3)n2)c1 [Example 23, 7-(3-cyanophenyl)-3-(6-[1-hydroxycyclobutyl]pyrid-2-ylmethyl)-3H-[1,2,3]triazolo[4,5-d]pyrimidin-5-amine] |  |
